How the values were obtained:
Test in all cases: NCI one-dose assay
Type in all cases: cell-based
[1] = test system: MCF7; conditions: Homo sapiens, MCF7, Breast cancer, read-out: Cell growth inhibition %
Procedure: (§1) The National Cancer Institute (NCI), Bethesda, USA, selected the final compounds 6a–j and 7a–j for in vitro anticancer screening. An initial in vitro single-dose anticancer experiment was performed with the entire NCI 60 cell lines derived from nine tumor subpanel cancer cell lines. The results for each compound were illustrated as a mean graph showing the percentage growth of treated cells compared to untreated control cells (see Supplementary Materials).
(§2) The NCI anticancer screening process has been thoroughly detailed. The Drug Evaluation Branch of the National Cancer Institute in Bethesda, […], USA, established the procedure and conducted the anticancer assay on 60 human tumor cell lines from nine neoplastic cancers.

[2] = test system: HCC-2998; conditions: Homo sapiens, HCC-2998, Colon cancer, read-out: Cell growth inhibition %
Procedure: as §1, §2

[3] = test system: TK-10; conditions: Homo sapiens, TK-10, Renal cancer, read-out: Cell growth inhibition %
Procedure: as §1, §2

[4] = test system: NCI-H460; conditions: Homo sapiens, NCI-H460, Non-small cell lung cancer, read-out: Cell growth inhibition %
Procedure: as §1, §2

[5] = test system: U251; conditions: Homo sapiens, U-251, U251, CNS cancer, read-out: Cell growth inhibition %
Procedure: as §1, §2

[6] = test system: UACC-257; conditions: Homo sapiens, UACC-257, Melanoma, read-out: Cell growth inhibition %
Procedure: as §1, §2

[7] = test system: KM12; conditions: Homo sapiens, KM12, Colon cancer, read-out: Cell growth inhibition %
Procedure: as §1, §2

[8] = test system: K-562; conditions: Homo sapiens, K562, K-562, Leukemia, read-out: Cell growth inhibition %
Procedure: as §1, §2

[9] = test system: SK-MEL-28; conditions: Homo sapiens, SK-MEL-28, Melanoma, read-out: Cell growth inhibition %
Procedure: as §1, §2

[10] = test system: OVCAR-8; conditions: Homo sapiens, OVCAR-8, Ovarian cancer, read-out: Cell growth inhibition %
Procedure: as §1, §2

[11] = test system: RPMI-8226; conditions: Homo sapiens, RPMI-8226, Leukemia, read-out: Cell growth inhibition %
Procedure: as §1, §2

[12] = test system: MDA-MB-231/ATCC; conditions: Homo sapiens, Breast cancer, read-out: Cell growth inhibition %
Procedure: as §1, §2

[13] = test system: UACC-62; conditions: Homo sapiens, UACC-62, Melanoma, read-out: Cell growth inhibition %
Procedure: as §1, §2

[14] = test system: SK-MEL-5; conditions: Homo sapiens, SK-MEL-5, Melanoma, read-out: Cell growth inhibition %
Procedure: as §1, §2

[15] = test system: NCI-H226; conditions: Homo sapiens, NCI-H226, Non-small cell lung cancer, read-out: Cell growth inhibition %
Procedure: as §1, §2

[16] = test system: SNB-75; conditions: Homo sapiens, SNB-75, CNS cancer, read-out: Cell growth inhibition %
Procedure: as §1, §2

[17] = test system: HL-60(TB); conditions: Homo sapiens, Leukemia, read-out: Cell growth inhibition %
Procedure: as §1, §2

[18] = test system: MDA-MB-435; conditions: Homo sapiens, MDA-MB-435, Melanoma, read-out: Cell growth inhibition %
Procedure: as §1, §2

[19] = test system: SF-295; conditions: Homo sapiens, SF-295, CNS cancer, read-out: Cell growth inhibition %
Procedure: as §1, §2

[20] = test system: IGROV1; conditions: Homo sapiens, IGROV-1, IGROV1, Ovarian cancer, read-out: Cell growth inhibition %
Procedure: as §1, §2

[21] = test system: NCI-H522; conditions: Homo sapiens, NCI-H522, Non-small cell lung cancer, read-out: Cell growth inhibition %
Procedure: as §1, §2

[22] = test system: NCI-H322M; conditions: Homo sapiens, Non-small cell lung cancer, read-out: Cell growth inhibition %
Procedure: as §1, §2

[23] = test system: SK-OV-3; conditions: Homo sapiens, SK-OV-3, Ovarian cancer, read-out: Cell growth inhibition %
Procedure: as §1, §2

[24] = test system: A549/ATCC; conditions: Homo sapiens, Non-small cell lung cancer, read-out: Cell growth inhibition %
Procedure: as §1, §2

[25] = test system: SR; conditions: Homo sapiens, Leukemia, read-out: Cell growth inhibition %
Procedure: as §1, §2

[26] = test system: M14; conditions: Homo sapiens, M14, Melanoma, read-out: Cell growth inhibition %
Procedure: as §1, §2

[27] = test system: HT29; conditions: Homo sapiens, HT-29, HT29, Colon cancer, read-out: Cell growth inhibition %
Procedure: as §1, §2

[28] = test system: BT-549; conditions: Homo sapiens, BT-549, Breast cancer, read-out: Cell growth inhibition %
Procedure: as §1, §2

[29] = test system: T-47D; conditions: Homo sapiens, T47D, Breast cancer, read-out: Cell growth inhibition %
Procedure: as §1, §2

[30] = test system: OVCAR-4; conditions: Homo sapiens, OVCAR-4, Ovarian cancer, read-out: Cell growth inhibition %
Procedure: as §1, §2

[31] = test system: SF-539; conditions: Homo sapiens, SF-539, CNS cancer, read-out: Cell growth inhibition %
Procedure: as §1, §2

[32] = test system: MALME-3M; conditions: Homo sapiens, Melanoma, read-out: Cell growth inhibition %
Procedure: as §1, §2

[33] = test system: CAKI-1; conditions: Homo sapiens, CAKI-1, Renal cancer, read-out: Cell growth inhibition %
Procedure: as §1, §2

[34] = test system: HS 578 T; conditions: Homo sapiens, Breast cancer, read-out: Cell growth inhibition %
Procedure: as §1, §2

[35] = test system: MDA-MB-468; conditions: Homo sapiens, MDA-MB-468, Breast cancer, read-out: Cell growth inhibition %
Procedure: as §1, §2

[36] = test system: ACHN; conditions: Homo sapiens, Renal cancer, read-out: Cell growth inhibition %
Procedure: as §1, §2

SMILES | inhibition at 10 µM [1] [%] | inhibition at 10 µM [2] [%] | inhibition at 10 µM [3] [%] | inhibition at 10 µM [4] [%] | inhibition at 10 µM [5] [%] | inhibition at 10 µM [6] [%] | inhibition at 10 µM [7] [%] | inhibition at 10 µM [8] [%] | inhibition at 10 µM [9] [%] | inhibition at 10 µM [10] [%] | inhibition at 10 µM [11] [%] | inhibition at 10 µM [12] [%] | inhibition at 10 µM [13] [%] | inhibition at 10 µM [14] [%] | inhibition at 10 µM [15] [%] | inhibition at 10 µM [16] [%] | inhibition at 10 µM [17] [%] | inhibition at 10 µM [18] [%] | inhibition at 10 µM [19] [%] | inhibition at 10 µM [20] [%] | other results
C=CCn1c(SCC(=O)c2ccc(OC)cc2)nnc1-c1c[nH]c2ccccc12 [Compound 6b, 2-((4-Allyl-5-(1H-indol-3-yl)-4H-1,2,4-triazol-3-yl)thio)-1-(4-methoxyphenyl) Ethenone] | 5.93 | -3.48 | -40.5 | -1.3 | 2.31 | -2.78 | -4.63 | 8.14 | 1.56 | 4.99 | 16.8 | 11.1 | 15.6 | 3.34 | 7.5 | -14.8 | 8.98 | -8.45 | 2.91 | 11.1 | inhibition at 10 µM [21]: 0.49%; inhibition at 10 µM [22]: 2.42%; inhibition at 10 µM [23]: -30.5%; inhibition at 10 µM [24]: -8.47%; inhibition at 10 µM [25]: 18.5%; inhibition at 10 µM [26]: -1.55%; inhibition at 10 µM [27]: -12.7%; inhibition at 10 µM [28]: -1.84%; inhibition at 10 µM [29]: 11.1%; inhibition at 10 µM [30]: -4.81%; inhibition at 10 µM [31]: 1.18%; inhibition at 10 µM [32]: 5.32%; inhibition at 10 µM [33]: 7.83%; inhibition at 10 µM [34]: 0.85%; inhibition at 10 µM [35]: 5.01%; inhibition at 10 µM [36]: 8.68%
O=C(CSc1nnc(-c2c[nH]c3ccccc23)n1-c1ccccc1)c1ccc(Br)cc1 [Compound 6i, 2-((5-(1H-Indol-3-yl)-4-phenyl-4H-1,2,4-triazol-3-yl)thio)-1-(4-bromophenyl) Ethenone] | 46.6 | 68.3 | 35.1 | 65.5 | 38.4 | 47.5 | 65.4 | 18 | 65.1 | 56.5 | 45.6 | 34 | 64.8 | 82.8 | 60.9 | 61.2 | 55.5 | 59.1 | 66.3 | 35.9 | inhibition at 10 µM [21]: 53.7%; inhibition at 10 µM [22]: 54.3%; inhibition at 10 µM [23]: 51.4%; inhibition at 10 µM [24]: 70.1%; inhibition at 10 µM [25]: 9.15%; inhibition at 10 µM [26]: 49%; inhibition at 10 µM [27]: 42.6%; inhibition at 10 µM [28]: 34.8%; inhibition at 10 µM [29]: 78%; inhibition at 10 µM [30]: 53.8%; inhibition at 10 µM [31]: 38%; inhibition at 10 µM [32]: 29%; inhibition at 10 µM [33]: 55.7%; inhibition at 10 µM [34]: 47.7%; inhibition at 10 µM [35]: 78%; inhibition at 10 µM [36]: 62.6%
C=CCn1c(SC/C(=N\O)c2ccc(C)cc2)nnc1-c1c[nH]c2ccccc12 [Compound 7c, (Z)-2-((4-allyl-5-(1H-indol-3-yl)-4H-1,2,4-triazol-3-yl)thio)-1-(p-tolyl)ethanone Oxime] | 11.9 | 1.5 | -26.8 | 9.2 | -2.94 | -6.62 | 0.27 | 13.3 | -5.62 | 8.49 | 8.76 | 4.01 | 30.9 | 11.1 | 23.1 | 2.58 | 10 | -2.07 | 15.1 | 23.2 | inhibition at 10 µM [21]: 14.6%; inhibition at 10 µM [22]: 5.67%; inhibition at 10 µM [23]: -0.26%; inhibition at 10 µM [24]: 4.9%; inhibition at 10 µM [25]: 16.5%; inhibition at 10 µM [26]: 5.59%; inhibition at 10 µM [27]: -4.09%; inhibition at 10 µM [28]: -7.22%; inhibition at 10 µM [29]: 26.5%; inhibition at 10 µM [30]: 6.11%; inhibition at 10 µM [31]: -1.42%; inhibition at 10 µM [32]: 9.17%; inhibition at 10 µM [33]: 20.2%; inhibition at 10 µM [34]: 6.55%; inhibition at 10 µM [35]: 27.1%; inhibition at 10 µM [36]: 11.4%
